The source of these data is BindingDB's records for doi:10.1021/jm801322h (Pfizer, 2009).

Molecules are shown by their SMILES. Where only a bound is given, the exact number is not on record here.

The term IC50 denotes the concentration that gives 50% inhibition. A high value points to lower potency.

For this test, the target named is T1, Gag-Pol polyprotein [588-1027] (Human immunodeficiency virus type 1 group M subtype B (isolate HXB2), UniProt P04585).
T1 construct: 588-1027
Put plainly: Reverse Transcriptase Assay. As to conditions: pH 7.8; 37 °C. The protocol:
The inhibition of the RNA-dependent DNA polymerase activity of the HIV-1 reverse transcriptase enzyme was measured using a primer extension assay. The substrate-incorporated radioactivity was measured using the Topcount NXT with a reading time of 1 minute/well and IC50 were deduced from the dose response curves obtained.

On to `CNCc1n[nH]c2cccc(Oc3cc(C#N)cc(C#N)c3)c12` [5-({3-[(methylamino)methyl]-1H-indazol-4-yl}oxy)benzene-1,3-dicarbonitrile], for which the IC50 is more than 30 µM.
